Laboratory results from patent EP1212335B1, “GLUCOPYRANOSIDES CONJUGATES OF 2-(4-HYDROXY-PHENYL)-1- 4-(2-AMIN-1-YL-ETHOXY)-BENZYL]-1H-INDOL-5-OLS” (Wyeth, priority 1999, dated 2001).

Target: T1, estrogen receptor (Homo sapiens, UniProt P03372)
T1 construct: since the MCF-7 cells express estrogen receptors; endogenous in cells; host or cells: MCF-7 human mammary carcinoma cells, infected with adenovirus 5-ERE-tk-luciferase (reporter only)
T1 sequence (P03372 1-595): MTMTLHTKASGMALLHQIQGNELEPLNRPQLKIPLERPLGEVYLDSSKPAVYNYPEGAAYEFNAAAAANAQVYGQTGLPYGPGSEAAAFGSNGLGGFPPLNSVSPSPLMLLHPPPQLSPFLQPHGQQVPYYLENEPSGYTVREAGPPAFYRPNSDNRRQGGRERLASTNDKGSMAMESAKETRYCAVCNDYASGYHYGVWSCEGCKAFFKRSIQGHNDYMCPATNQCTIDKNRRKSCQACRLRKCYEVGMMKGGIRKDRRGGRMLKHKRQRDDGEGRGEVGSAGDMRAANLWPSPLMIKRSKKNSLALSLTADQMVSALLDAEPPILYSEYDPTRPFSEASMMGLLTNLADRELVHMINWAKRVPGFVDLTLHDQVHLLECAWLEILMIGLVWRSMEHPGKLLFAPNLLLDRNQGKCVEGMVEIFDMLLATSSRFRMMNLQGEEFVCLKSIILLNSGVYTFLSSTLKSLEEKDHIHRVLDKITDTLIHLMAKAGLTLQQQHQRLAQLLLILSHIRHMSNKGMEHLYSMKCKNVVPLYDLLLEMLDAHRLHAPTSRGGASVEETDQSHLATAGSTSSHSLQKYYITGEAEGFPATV
Assay: Estrogen antagonist/agonist activity in MCF-7 cells infected with adenovirus 5-ERE-tk-luciferase (luciferase reporter)
Type: cell-based
Conditions: antagonist mode, co-dosed with 10 pM 17β-estradiol, 24 h treatment
Excerpt: Estrogen antagonist activity was shown for representative compounds of this invention in a standard pharmacological test procedure using MCF-7 cells transfected with an estrogen receptor. When administered orally, the compounds of this invention act at least partially as prodrugs for the corresponding hydroxylated compounds disclosed in EP 802183. Accordingly, the compounds of this invention are tissue selective estrogens, meaning that in certain tissue containing estrogen receptors, the compounds will act as estrogen agonists, and in other tissue containing estrogen receptors, the compounds will act as antagonists. […] The cell lysates (20 uL) were transferred to a 96 well luminometer plate, and luciferase activity was measured in a MicroLumat LB 96 P luminometer (EG and G Bethold) using 100 uL/well of luciferase substrate (Promega Corporation). […] Following the injection of the substrate, luciferase activity was measured for 10 seconds after a 1 second delay. The data were transferred from the luminometer to a Macintosh personal computer and analyzed using the JMP software (SAS institute); this program subtracts the background reading from the luciferase measurement for each well and then determine the mean and standard deviation of each treatment. […]

## Cc1c(-c2ccc(OC3OC(C(=O)O)C(O)C(O)C3O)cc2)n(Cc2ccc(OCCN3CCCCCC3)cc2)c2ccc(O)cc12 (centres unmarked) [Compound 38, 1-[4-(2-Azepan-1-yl-ethoxy)-benzyl]-2-(4-hydroxy-phenyl)-3-methyl-1H-indol-5-ol 4-O-glucuronide]
  IC50: 1100 nM

## Cc1c(-c2ccc(O)cc2)n(Cc2ccc(OCCN3CCCCCC3)cc2)c2ccc(OC3OC(C(=O)O)C(O)C(O)C3O)cc12 (centres unmarked) [Compound 30, 1-[4-(2-Azepan-1-yl-ethoxy)-benzyl]-2-(4-hydroxy-phenyl)-3-methyl-1H-indol-5-ol 5-O-glucuronide]
  IC50: 210 nM
